Measurements reported in the NIST ThermoML archive (doi:10.1016/j.tca.2012.12.008).
± gives the expanded uncertainty stated by the source.

Key:
[1] = 101 kPa, Liquid; for viscosity: Capillary tube (Ostwald / Ubbelohde) method; for mass density: Vibrating tube method
[2] = xn = mol fraction of the nth substance listed; conditions: 101 kPa, Liquid; for viscosity: Capillary tube (Ostwald / Ubbelohde) method; for mass density: Vibrating tube method

Structure (SMILES): CCCCCC(C)O (stereo not drawn) [2-heptanol]
- viscosity ([1]; 298.15 K): 5.003 ± 0.037 mPa·s
- mass density ([1]; 298.15 K): 813.18 ± 0.24 kg/m3
- viscosity ([1]; 303.15 K): 4.152 ± 0.031 mPa·s
- mass density ([1]; 303.15 K): 809.26 ± 0.24 kg/m3
- viscosity ([1]; 308.15 K): 3.478 ± 0.026 mPa·s
- mass density ([1]; 308.15 K): 805.01 ± 0.24 kg/m3
- viscosity ([1]; 313.15 K): 2.853 ± 0.022 mPa·s
- mass density ([1]; 313.15 K): 801.14 ± 0.24 kg/m3

Structure (SMILES): CCCCC(C)O (stereo not drawn) [2-hexanol]
- viscosity ([1]; 298.15 K): 4.101 ± 0.031 mPa·s
- mass density ([1]; 298.15 K): 810.14 ± 0.24 kg/m3
- viscosity ([1]; 303.15 K): 3.411 ± 0.026 mPa·s
- mass density ([1]; 303.15 K): 806.13 ± 0.24 kg/m3
- viscosity ([1]; 308.15 K): 2.819 ± 0.021 mPa·s
- mass density ([1]; 308.15 K): 802.06 ± 0.24 kg/m3
- viscosity ([1]; 313.15 K): 2.219 ± 0.017 mPa·s
- mass density ([1]; 313.15 K): 797.96 ± 0.24 kg/m3

Structure (SMILES): CCC(C)O (stereo not drawn) [butan-2-ol]
- viscosity ([1]; 298.15 K): 3.105 ± 0.023 mPa·s
- mass density ([1]; 298.15 K): 802.7 ± 0.24 kg/m3
- viscosity ([1]; 303.15 K): 2.597 ± 0.02 mPa·s
- mass density ([1]; 303.15 K): 798.3 ± 0.24 kg/m3
- viscosity ([1]; 308.15 K): 2.153 ± 0.016 mPa·s
- mass density ([1]; 308.15 K): 793.57 ± 0.24 kg/m3
- viscosity ([1]; 313.15 K): 1.734 ± 0.013 mPa·s
- mass density ([1]; 313.15 K): 789.15 ± 0.24 kg/m3

Structure (SMILES): CCC(C)O (stereo not drawn) [butan-2-ol] + CCC(C)=O
- viscosity ([2]; 298.15 K, x2 = 0): 3.105 ± 0.023 mPa·s
- mass density ([2]; 298.15 K, x2 = 0): 802.7 ± 0.24 kg/m3
- viscosity ([2]; 303.15 K, x2 = 0): 2.597 ± 0.02 mPa·s
- mass density ([2]; 303.15 K, x2 = 0): 798.3 ± 0.24 kg/m3
- viscosity ([2]; 308.15 K, x2 = 0): 2.153 ± 0.016 mPa·s
- mass density ([2]; 308.15 K, x2 = 0): 793.57 ± 0.24 kg/m3
- viscosity ([2]; 313.15 K, x2 = 0): 1.734 ± 0.013 mPa·s
- mass density ([2]; 313.15 K, x2 = 0): 789.15 ± 0.24 kg/m3

Structure (SMILES): CCC(C)=O [butanone]
- viscosity ([1]; 298.15 K): 0.381 ± 0.004 mPa·s
- mass density ([1]; 298.15 K): 799.48 ± 0.24 kg/m3
- viscosity ([1]; 303.15 K): 0.368 ± 0.004 mPa·s
- mass density ([1]; 303.15 K): 794.63 ± 0.24 kg/m3
- viscosity ([1]; 308.15 K): 0.352 ± 0.004 mPa·s
- mass density ([1]; 308.15 K): 789.9 ± 0.24 kg/m3
- viscosity ([1]; 313.15 K): 0.339 ± 0.004 mPa·s
- mass density ([1]; 313.15 K): 785.52 ± 0.24 kg/m3

Structure (SMILES): CCC(C)=O [butanone] + CCCC(C)O
- viscosity ([2]; 298.15 K, x1 = 1): 0.381 ± 0.004 mPa·s
- mass density ([2]; 298.15 K, x1 = 1): 799.48 ± 0.24 kg/m3
- viscosity ([2]; 303.15 K, x1 = 1): 0.368 ± 0.004 mPa·s
- mass density ([2]; 303.15 K, x1 = 1): 794.63 ± 0.24 kg/m3
- viscosity ([2]; 308.15 K, x1 = 1): 0.352 ± 0.004 mPa·s
- mass density ([2]; 308.15 K, x1 = 1): 789.9 ± 0.24 kg/m3
- viscosity ([2]; 313.15 K, x1 = 1): 0.339 ± 0.004 mPa·s
- mass density ([2]; 313.15 K, x1 = 1): 785.52 ± 0.24 kg/m3

Structure (SMILES): CCC(C)=O [butanone] + CCCCC(C)O
- viscosity ([2]; 298.15 K, x1 = 1): 0.381 ± 0.004 mPa·s
- mass density ([2]; 298.15 K, x1 = 1): 799.48 ± 0.24 kg/m3
- viscosity ([2]; 303.15 K, x1 = 1): 0.368 ± 0.004 mPa·s
- mass density ([2]; 303.15 K, x1 = 1): 794.63 ± 0.24 kg/m3
- viscosity ([2]; 308.15 K, x1 = 1): 0.352 ± 0.004 mPa·s
- mass density ([2]; 308.15 K, x1 = 1): 789.9 ± 0.24 kg/m3
- viscosity ([2]; 313.15 K, x1 = 1): 0.339 ± 0.004 mPa·s
- mass density ([2]; 313.15 K, x1 = 1): 785.52 ± 0.24 kg/m3

Structure (SMILES): CCC(C)=O [butanone] + CCCCCC(C)O
- viscosity ([2]; 298.15 K, x1 = 1): 0.381 ± 0.004 mPa·s
- mass density ([2]; 298.15 K, x1 = 1): 799.48 ± 0.24 kg/m3
- viscosity ([2]; 303.15 K, x1 = 1): 0.368 ± 0.004 mPa·s
- mass density ([2]; 303.15 K, x1 = 1): 794.63 ± 0.24 kg/m3
- viscosity ([2]; 308.15 K, x1 = 1): 0.352 ± 0.004 mPa·s
- mass density ([2]; 308.15 K, x1 = 1): 789.9 ± 0.24 kg/m3
- viscosity ([2]; 313.15 K, x1 = 1): 0.339 ± 0.004 mPa·s
- mass density ([2]; 313.15 K, x1 = 1): 785.52 ± 0.24 kg/m3

Structure (SMILES): CCCC(C)O (stereo not drawn) [pentan-2-ol]
- viscosity ([1]; 298.15 K): 3.478 ± 0.026 mPa·s
- mass density ([1]; 298.15 K): 805.41 ± 0.24 kg/m3
- viscosity ([1]; 303.15 K): 2.801 ± 0.021 mPa·s
- mass density ([1]; 303.15 K): 801.21 ± 0.24 kg/m3
- viscosity ([1]; 308.15 K): 2.335 ± 0.018 mPa·s
- mass density ([1]; 308.15 K): 796.64 ± 0.24 kg/m3
- viscosity ([1]; 313.15 K): 1.993 ± 0.015 mPa·s
- mass density ([1]; 313.15 K): 792.51 ± 0.24 kg/m3

Structure (SMILES): CC(C)O [propan-2-ol]
- viscosity ([1]; 298.15 K): 2.055 ± 0.016 mPa·s
- mass density ([1]; 298.15 K): 781.09 ± 0.24 kg/m3
- viscosity ([1]; 303.15 K): 1.788 ± 0.014 mPa·s
- mass density ([1]; 303.15 K): 776.77 ± 0.24 kg/m3
- viscosity ([1]; 308.15 K): 1.563 ± 0.012 mPa·s
- mass density ([1]; 308.15 K): 771.87 ± 0.24 kg/m3
- viscosity ([1]; 313.15 K): 1.379 ± 0.011 mPa·s
- mass density ([1]; 313.15 K): 767.37 ± 0.24 kg/m3

Structure (SMILES): CC(C)O [propan-2-ol] + CCC(C)=O
- viscosity ([2]; 298.15 K, x2 = 0): 2.055 ± 0.016 mPa·s
- mass density ([2]; 298.15 K, x2 = 0): 781.09 ± 0.24 kg/m3
- viscosity ([2]; 303.15 K, x2 = 0): 1.788 ± 0.014 mPa·s
- mass density ([2]; 303.15 K, x2 = 0): 776.77 ± 0.24 kg/m3
- viscosity ([2]; 308.15 K, x2 = 0): 1.563 ± 0.012 mPa·s
- mass density ([2]; 308.15 K, x2 = 0): 771.87 ± 0.24 kg/m3
- viscosity ([2]; 313.15 K, x2 = 0): 1.379 ± 0.011 mPa·s
- mass density ([2]; 313.15 K, x2 = 0): 767.37 ± 0.24 kg/m3
